Assay results: US12459922B2 (Gilead Sciences, Inc., priority 2022, dated 2025)

What was measured:
[1] = target: T1, PARP7 (Homo sapiens, UniProt Q7Z3E1); assay: Probe Displacement Assay for PARP7 (MSD electrochemiluminescent, biotinylated probe RBNO11147); conditions: displacement of biotinylated probe RBNO11147 from PARP7 NAD+-binding site; read-out: MSD ProbeDisp PARP7 IC50
T1 sequence (Q7Z3E1 1-657): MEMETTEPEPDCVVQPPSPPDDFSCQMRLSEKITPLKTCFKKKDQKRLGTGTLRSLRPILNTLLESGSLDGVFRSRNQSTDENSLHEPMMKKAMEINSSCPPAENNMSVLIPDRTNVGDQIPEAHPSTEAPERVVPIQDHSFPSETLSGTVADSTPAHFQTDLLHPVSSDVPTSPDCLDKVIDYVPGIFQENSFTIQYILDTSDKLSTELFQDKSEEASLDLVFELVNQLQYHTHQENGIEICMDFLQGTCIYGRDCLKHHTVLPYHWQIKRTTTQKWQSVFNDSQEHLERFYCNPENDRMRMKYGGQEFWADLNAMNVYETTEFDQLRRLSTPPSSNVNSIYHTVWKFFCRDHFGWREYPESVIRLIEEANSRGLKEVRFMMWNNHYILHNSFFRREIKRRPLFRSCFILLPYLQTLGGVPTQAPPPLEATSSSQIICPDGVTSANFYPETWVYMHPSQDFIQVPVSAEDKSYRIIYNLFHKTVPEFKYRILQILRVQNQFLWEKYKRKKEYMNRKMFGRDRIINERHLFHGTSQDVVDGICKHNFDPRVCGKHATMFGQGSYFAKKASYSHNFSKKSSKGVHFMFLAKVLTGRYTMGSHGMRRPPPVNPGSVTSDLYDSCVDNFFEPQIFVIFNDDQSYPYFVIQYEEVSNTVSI
Description: Displacement of a biotinylated probe (RBNO11147; Wigle et al., Cell Chemical Biology, 2020, pp. 877-887) from the PARP7 NAD+-binding site was measured in vitro using a Mesoscale Discovery electrochemiluminescent assay. […] Next, 10 ml of 10 nM PARP7 protein incubated for 1 hour at room temperature with a dose response curve of each test compound in a Greiner LDV polypropylene plate (#781201) is added to the MSD plate containing the immobilized probe. The interaction is allowed to reach equilibrium for 1.5 hours, and then 10 ml of SULFO-TAG labeled anti-GST antibody (Cat #R32AA-1) is added to each well and allowed to incubate for an additional 1.5 hours at room temperature. Finally, 10 ml of MSD read buffer T (4×, Cat. #R92C-1) is added to each well using a Bravo liquid handler to prevent air bubbles in the wells, and the plates are subsequently read in an MSD instrument. Light intensity is then measured to quantify the amount of PARP7 bound to the immobilized probe on the plate.

[2] = test system: endogenous cellular STAT1 (phosphorylated at Tyr701) in NCI-H1373 cells; assay: Phospho-STAT1 (Tyr701) LANCE Ultra TR-FRET Detection Assay; assay type: cell-based; conditions: Homo sapiens, NCI-H1373, 48 h, phospho-STAT1 (Tyr701) induction, read-out: NH1373 pSTAT1 EC50

Structure (SMILES)	IC50 [1] [nM]	EC50 [2] [nM]
C[C@@H](CCCn1ccc2cc(-c3nc(C(F)(F)F)n(C)n3)c(F)cc2c1=O)Nc1cn[nH]c(=O)c1C(F)(F)F [Example 300, (S)-7-fluoro-6-(1-methyl-5-(trifluoromethyl)-1H-1,2,4-triazol-3-yl)-2-(4-((6-oxo-5-(trifluoromethyl)-1,6-dihydropyridazin-4-yl)amino)pentyl)isoquinolin-1(2H)-one]	0.413	56.1
C[C@@H](CCCn1ccc2cc(-c3nc(C(F)F)cs3)c(F)cc2c1=O)Nc1cn[nH]c(=O)c1C(F)(F)F [Example 301, (S)-6-(4-(difluoromethyl)thiazol-2-yl)-7-fluoro-2-(4-((6-oxo-5-(trifluoromethyl)-1,6-dihydropyridazin-4-yl)amino)pentyl)isoquinolin-1(2H)-one]	0.508	549
C[C@@H](CCCn1ccc2cc(-c3ncc(CN)cn3)c(F)cc2c1=O)Nc1cn[nH]c(=O)c1C(F)(F)F [Example 302, (S)-6-(5-(aminomethyl)pyrimidin-2-yl)-7-fluoro-2-(4-((6-oxo-5-(trifluoromethyl)-1,6-dihydropyridazin-4-yl)amino)pentyl)isoquinolin-1(2H)-one]	2.06	108
C[C@@H](CCCn1ccc2cc(-c3cn4ccccc4n3)c(F)cc2c1=O)Nc1cn[nH]c(=O)c1C(F)(F)F [Example 305, (S)-7-fluoro-6-(imidazo[1,2-a]pyridin-2-yl)-2-(4-((6-oxo-5-(trifluoromethyl)-1,6-dihydropyridazin-4-yl)amino)pentyl)isoquinolin-1(2H)-one]	0.387	57
C[C@@H](CCCn1ccc2cc(-c3nc4ccccc4o3)c(F)cc2c1=O)Nc1cn[nH]c(=O)c1C(F)(F)F [Example 307, (S)-6-(benzo[d]oxazol-2-yl)-7-fluoro-2-(4-((6-oxo-5-(trifluoromethyl)-1,6-dihydropyridazin-4-yl)amino)pentyl)isoquinolin-1(2H)-one]	0.352	11.2
C[C@@H](CCCn1ccc2cc(-c3nc4ccccc4s3)c(F)cc2c1=O)Nc1cn[nH]c(=O)c1C(F)(F)F [Example 308, (S)-6-(benzo[d]thiazol-2-yl)-7-fluoro-2-(4-((6-oxo-5-(trifluoromethyl)-1,6-dihydropyridazin-4-yl)amino)pentyl)isoquinolin-1(2H)-one]	0.387	35.8
Cc1cc(NC2CC2)nc(-c2cc3ccn(CCC[C@H](C)Nc4cn[nH]c(=O)c4C(F)(F)F)c(=O)c3cc2F)n1 [Example 310, (S)-6-(4-(cyclopropylamino)-6-methylpyrimidin-2-yl)-7-fluoro-2-(4-((6-oxo-5-(trifluoromethyl)-1,6-dihydropyridazin-4-yl)amino)pentyl)isoquinolin-1(2H)-one]	1.3	910
C[C@@H](CCCn1ccc2cc(-c3ncc(C(F)(F)F)c(N4C[C@@H](O)C[C@@H]4C)n3)c(F)cc2c1=O)Nc1cn[nH]c(=O)c1C(F)(F)F [Example 312, 7-fluoro-6-(4-((2S,4S)-4-hydroxy-2-methylpyrrolidin-1-yl)-5-(trifluoromethyl)pyrimidin-2-yl)-2-((S)-4-((6-oxo-5-(trifluoromethyl)-1,6-dihydropyridazin-4-yl)amino)pentyl)isoquinolin-1(2H)-one]	0.623	70

The next compounds have a lower IC50 [1] than those just listed; values first:

IC50 [1] [nM]	EC50 [2] [nM]	Structure (SMILES)
0.11	1750	C[C@@H](CCCn1ccc2cc(-c3ncc4c(n3)NC(=O)CO4)c(F)cc2c1=O)Nc1cn[nH]c(=O)c1C(F)(F)F [Example 185, (S)-2-(7-fluoro-1-oxo-2-(4-((6-oxo-5-(trifluoromethyl)-1,6-dihydropyridazin-4-yl)amino)pentyl)-1,2-dihydroisoquinolin-6-yl)-6H-pyrimido[5,4-b][1,4]oxazin-7(8H)-one]
0.188	9.34	C[C@@H](CCCn1cnc2cc(-c3ncc(C(F)(F)F)c(N4CC(C#N)C4)n3)c(F)cc2c1=O)Nc1cn[nH]c(=O)c1C(F)(F)F [Example 206]
0.221	31	C[C@@H](CCCn1ccc2cc(-c3ncc4cn[nH]c4n3)c(F)cc2c1=O)Nc1cn[nH]c(=O)c1C(F)(F)F [Example 299, (S)-7-fluoro-2-(4-((6-oxo-5-(trifluoromethyl)-1,6-dihydropyridazin-4-yl)amino)pentyl)-6-(1H-pyrazolo[3,4-d]pyrimidin-6-yl)isoquinolin-1(2H)-one]
0.273	3.43	CC[C@@H](CCCn1ccc2cc(-c3ncc(Cl)c(N)n3)c(F)cc2c1=O)Nc1cn[nH]c(=O)c1C(F)(F)F [Example 303, (S)-6-(4-amino-5-chloropyrimidin-2-yl)-7-fluoro-2-(4-((6-oxo-5-(trifluoromethyl)-1,6-dihydropyridazin-4-yl)amino)hexyl)isoquinolin-1(2H)-one]
0.199	25.6	C[C@@H](CCCn1ccc2cc(-c3cc4ccccn4n3)c(F)cc2c1=O)Nc1cn[nH]c(=O)c1C(F)(F)F [Example 304, (S)-7-fluoro-2-(4-((6-oxo-5-(trifluoromethyl)-1,6-dihydropyridazin-4-yl)amino)pentyl)-6-(pyrazolo[1,5-a]pyridin-2-yl)isoquinolin-1(2H)-one]
0.21	2.18	C[C@@H](CCCn1ccc2cc(-c3nc4ccccn4n3)c(F)cc2c1=O)Nc1cn[nH]c(=O)c1C(F)(F)F [Example 306, (S)-6-([1,2,4]triazolo[1,5-a]pyridin-2-yl)-7-fluoro-2-(4-((6-oxo-5-(trifluoromethyl)-1,6-dihydropyridazin-4-yl)amino)pentyl)isoquinolin-1(2H)-one]
0.258	149	C[C@@H](CCCn1ccc2cc(-c3ncc(C(F)(F)F)s3)c(F)cc2c1=O)Nc1cn[nH]c(=O)c1C(F)(F)F [Example 309, (S)-7-fluoro-2-(4-((6-oxo-5-(trifluoromethyl)-1,6-dihydropyridazin-4-yl)amino)pentyl)-6-(5-(trifluoromethyl)thiazol-2-yl)isoquinolin-1(2H)-one]
0.258	14	C[C@@H](CCCn1ccc2cc(-c3ncc(C(F)(F)F)c(N4C[C@@H](O)[C@@H]4C)n3)c(F)cc2c1=O)Nc1cn[nH]c(=O)c1C(F)(F)F [Example 311, 7-fluoro-6-(4-((2S,3R)-3-hydroxy-2-methylazetidin-1-yl)-5-(trifluoromethyl)pyrimidin-2-yl)-2-((S)-4-((6-oxo-5-(trifluoromethyl)-1,6-dihydropyridazin-4-yl)amino)pentyl)isoquinolin-1(2H)-one]
0.192	18.4	C[C@@H](CCCn1ccc2cc(-c3ncc(C(F)(F)F)c(N4C[C@H](O)C[C@@H]4C)n3)c(F)cc2c1=O)Nc1cn[nH]c(=O)c1C(F)(F)F [Example 313, 7-fluoro-6-(4-((2S,4R)-4-hydroxy-2-methylpyrrolidin-1-yl)-5-(trifluoromethyl)pyrimidin-2-yl)-2-((S)-4-((6-oxo-5-(trifluoromethyl)-1,6-dihydropyridazin-4-yl)amino)pentyl)isoquinolin-1(2H)-one]
0.185	6.08	C[C@@H](CCCn1cnc2cc(-c3ncc(C(F)(F)F)c(N4C[C@@H](O)[C@@H]4C)n3)c(F)cc2c1=O)Nc1cn[nH]c(=O)c1C(F)(F)F [Example 314, 6-fluoro-7-(4-((2S,3R)-3-hydroxy-2-methylazetidin-1-yl)-5-(trifluoromethyl)pyrimidin-2-yl)-3-((S)-4-((6-oxo-5-(trifluoromethyl)-1,6-dihydropyridazin-4-yl)amino)pentyl)quinazolin-4(3H)-one]
